Here are results for one compound from US20220089616A1, “CARBORANE-BASED HISTONE DEACETYLASE (HDAC) INHIBITORS” (The Regents of the University of California, priority 2018, published 2022).

SMILES strings stand for the structures.

The test system of the data set is primary mouse NPCs. Nature of the data set: TUNEL assay, mouse NPCs. Type of data set: cell-based. The settings on record: 40 μM. The procedure:
Primary neural progenitor cells (NPCs) were a gift from Dr. Harley Kornblum (University of California Los Angeles). The cells were collected from embryonic day 14 (E14) mouse brain according to procedures approved by the UCLA Chancellor's Committee for Animal Research. The following supplements were added to the Neurobasal media: 1:50 B27, 1:100 Pen-Strep, 2 mM 1-glutamine (all from GIBCO/BRL), 2 μg/ml heparin (Sigma), and 20 ng/ml FGF2 (PeproTech). Cells were incubated at 37° C. in the presence of 5% CO2. Additional FGF2 was added every third day, and cultures were passaged every 7 days. During each passage, spheres were enzymatically and mechanically dissociated with Accumax (Sigma).
Click-iT® Plus TUNEL Assay (Molecular Probes Life Technologies, Catalog #: C10617)
Primary mouse NPCs were passaged and counted as previously described. Cells without treatment were used as a negative control, DNaseI (Cat. no. 18068-015) was used to generate a positive control, and 10 μL of inhibitor solutions were used at varying concentrations. A 24-well plate was prepped with 12 mm circle glass coverslips in the wells. Coverslips were coated with poly-L-lysine followed by laminin prior to plating the cells. […]

In the case of `CN(Cc1ccc(/C=C/C(=O)NO)cc1)CC12CC3CC(CC(C3)C1)C2` [Martinostat], the “toxicity by average cell population count of confocal images” value (5 positions) was “higher toxicity”. Where the note is “FIG. 11A”, the TUNEL positive cells result is on record as “perceived elevation”.
